Like-named read-outs stand apart in the source and are kept apart here.
Legend:
[1] = target: T1, rat GPR14 (U-II receptor) (Rattus norvegicus, UniProt P49684); assay: Calcium flux assay (FLIPR); type: cell-based; settings: Inhibition of acetyl-cyclic[Cys-Phe-Trp-Lys-(2-Nal)-Cys]-NH2 (1 nM) induced Ca2+ mobilization (FLIPR) in CHO cells transfected with rat UII receptor; 5 min incubation
T1 construct: expressed in transfected cells
T1 sequence (P49684 1-386): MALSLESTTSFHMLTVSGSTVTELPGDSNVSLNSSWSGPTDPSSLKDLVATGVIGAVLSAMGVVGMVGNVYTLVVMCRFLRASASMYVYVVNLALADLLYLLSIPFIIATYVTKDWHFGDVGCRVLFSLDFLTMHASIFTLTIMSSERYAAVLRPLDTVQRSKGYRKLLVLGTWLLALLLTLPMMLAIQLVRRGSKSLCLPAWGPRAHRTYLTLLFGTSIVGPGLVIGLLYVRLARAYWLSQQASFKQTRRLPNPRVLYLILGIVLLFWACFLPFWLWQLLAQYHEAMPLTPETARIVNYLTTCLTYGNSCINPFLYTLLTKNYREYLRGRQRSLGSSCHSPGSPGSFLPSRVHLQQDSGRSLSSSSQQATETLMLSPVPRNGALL
From the text: To derive these cells, the complete coding sequence of rat […] was amplified by nested PCR from rat heart marathon-Ready cDNA. […] The PCR products were cloned into pcDNA3 (Invitrogen) digested with EcoR I and Xba I. Clones containing rat U-II receptor were verified by complete sequencing of the U-II receptor insert to ensure a lack of PCR-introduced errors. The constructed vector was transfected into CHO cells by using lipofectamine (GIBCO BRL). CHO cells with high expression of rat U-II receptor were selected and established as stable cell lines by using G418. CHO cells were seeded at 25,000 cells per well into 96-well, black-wall, clear-bottom microtiter plates 24 hrs before assay. Cells in culture media (DMEM/F12 containing 15 mM HEPES, L-glutamine, pyridoxine hydrochloride; 10% fetal bovine serum; 1 mg/mL G418 sulfate; antibiotic-antimycotic; pH 7.4) were loaded with proprietary dye, from the FLIPR Calcium Assay Kit (Molecular Devices), prepared in assay buffer (Hanks Balanced Salts Solution, 20 mM HEPES, 0.1% BSA, 2.5 mM probenecid, pH 7.4), and incubated for 1 hr at 37° C. Calcium mobilization determinations were performed at room temperature (23° C.).

Human UII receptors = target: T2, Human UII receptors (Homo sapiens, UniProt Q9UKP6); assay: Human radioligand binding assay, (125I)-U-II on HSMM
T2 construct: host or cells: Human Skeletal Muscle Myoblasts (HSMM), intact adherent cells
T2 sequence (Q9UKP6 1-389): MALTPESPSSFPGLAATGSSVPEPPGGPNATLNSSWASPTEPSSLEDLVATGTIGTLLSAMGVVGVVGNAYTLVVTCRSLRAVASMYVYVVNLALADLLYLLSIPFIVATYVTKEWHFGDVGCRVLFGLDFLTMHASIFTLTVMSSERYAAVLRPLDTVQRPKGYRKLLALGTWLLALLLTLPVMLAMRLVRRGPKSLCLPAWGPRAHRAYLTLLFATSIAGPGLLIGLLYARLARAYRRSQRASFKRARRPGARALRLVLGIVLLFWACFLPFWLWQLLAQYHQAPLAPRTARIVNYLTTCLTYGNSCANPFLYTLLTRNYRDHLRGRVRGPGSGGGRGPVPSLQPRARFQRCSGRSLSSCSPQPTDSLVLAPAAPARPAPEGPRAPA
Method: Human Skeletal Muscle Myoblasts (HSMM) were obtained from Cambrex, and were cultured according to manufacturer's instruction. Cell viability was examined by trypan blue exclusion. Cells at less than 4 passages were used in all studies. […] The binding medium used was Dulbecco's modified Eagle's medium (DMEM) containing 2 mg/ml BSA and 25 mM HEPES (pH 7.4). […] The cells were washed 4× with the binding medium and solubilized in 1% SDS and 0.5 N NaOH. Radioactivity was quantified by gamma counting.

[2] = 0.150 nM (125I)-U-II, intact Human Skeletal Muscle Myoblasts, 3 hrs, 25° C., read-out: Ki

| Structure (SMILES) | IC50 [1] [nM] | Ki (Human UII receptors; [2]) [nM] | Ki (Human UII receptors) [nM] |
| --- | --- | --- | --- |
| O=C(NCCc1c[nH]c2ccccc12)c1ccccc1C1CCN(CCN2C(=O)COc3ccccc32)CC1 [Cpd 26, N-[2-(1H-indol-3-yl)-ethyl]-2-{1-[2-(3-oxo-2,3-dihydro-benzo[1,4]oxazin-4-yl)-ethyl]-piperidin-4-yl}-benzamide] | 2000 | 750 |  |
| CC(C)(C)OC(=O)N1CCN(CCNC(=O)c2ccccc2C2CC3CCC(C2)N3CCN2C(=O)COc3ccccc32)CC1 (stereo not drawn) [Cpd 99, 4-[2-(2-{8-[2-(3-oxo-2,3-dihydro-benzo[1,4]oxazin-4-yl)-ethyl]-8-aza-bicyclo[3.2.1]oct-3-yl}-benzoylamino)-ethyl]-piperazine-1-carboxylic acid tert-butyl ester] | 1100 | 1400 |  |
| CC(C)(C)OC(=O)N1CCC(CNC(=O)c2ccccc2C2CCN(CCN3C(=O)COc4ccccc43)CC2)CC1 [Cpd 50, 4-[(2-{1-[2-(3-oxo-2,3-dihydro-benzo[1,4]oxazin-4-yl)-ethyl]-piperidin-4-yl}-benzoylamino)-methyl]-piperidine-1-carboxylic acid tert-butyl ester] | 2500 | 430 |  |
| CC(C)(C)OC(=O)NCCOCCNC(=O)c1cc(Cl)ccc1C1CCN(CCN2C(=O)COc3ccccc32)CC1 [Cpd 79, {2-[2-(5-chloro-2-{1-[2-(3-oxo-2,3-dihydro-benzo[1,4]oxazin-4-yl)-ethyl]-piperidin-4-yl}-benzoylamino)-ethoxy]-ethyl}-carbamic acid tert-butyl ester] | 37 |  | 53 |
| O=C(NCCCc1ccccc1)c1ccccc1C1CCN(CCN2C(=O)COc3ccccc32)CC1 [Cpd 3] | 4200 | 330 |  |
| O=C(NCC1CCN(C(=O)NCc2ccccc2)CC1)c1cc(Cl)ccc1C1CCN(CCN2C(=O)COc3ccccc32)CC1 [Cpd 67, 4-[(5-chloro-2-{1-[2-(3-oxo-2,3-dihydro-benzo[1,4]oxazin-4-yl)-ethyl]-piperidin-4-yl}-benzoylamino)-methyl]-piperidine-1-carboxylic acid benzylamide] | 210 | 30 |  |
| O=C(NCCCCNC(=O)c1cc(Cl)ccc1C1CCN(CCN2C(=O)COc3ccccc32)CC1)OCc1ccccc1 [Cpd 69, [4-(5-chloro-2-{1-[2-(3-oxo-2,3-dihydro-benzo[1,4]oxazin-4-yl)-ethyl]-piperidin-4-yl}-benzoylamino)-butyl]-carbamic acid benzyl ester] | 150 | 62 |  |
| CC(C)(C)OC(=O)NCCCCCNC(=O)c1ccccc1[C@@H]1C[C@H]2CC[C@@H](C1)N2CCN1C(=O)COc2ccccc21 [Cpd 98, [5-(2-{8-[2-(3-oxo-2,3-dihydro-benzo[1,4]oxazin-4-yl)-ethyl]-8-aza-bicyclo[3.2.1]oct-3-yl}-benzoylamino)-pentyl]-carbamic acid tert-butyl ester] | 1600 | 1400 |  |
| CC(C)(C)OC(=O)NCCCCCNC(=O)c1cc(Cl)ccc1C1CCN(CCN2C(=O)CCc3ccccc32)CC1 [Cpd 83, [5-(5-chloro-2-{1-[2-(2-oxo-3,4-dihydro-2H-quinolin-1-yl)-ethyl]-piperidin-4-yl}-benzoylamino)-pentyl]-carbamic acid tert-butyl ester] | 360 | 220 |  |
| O=C1COc2ccccc2N1CCN1CCC(C(=O)NCCCc2ccccc2)(c2ccccc2)CC1 [Cpd 107, 1-[2-(3-oxo-2,3-dihydro-benzo[1,4]oxazin-4-yl)-ethyl]-4-phenyl-piperidine-4-carboxylic acid (3-phenyl-propyl)-amide] | 9100 |  |  |
| O=C1COc2ccccc2N1CCN1CCC(C(=O)NCCc2ccccc2)(c2ccc(Cl)cc2)CC1 [Cpd 109, 4-(4-chloro-phenyl)-1-[2-(3-oxo-2,3-dihydro-benzo[1,4]oxazin-4-yl)-ethyl]-piperidine-4-carboxylic acid phenethyl-amide] | 5000 |  |  |
| O=C(NCCc1c[nH]c2ccccc12)c1cc(Cl)ccc1C1CCN(CCN2C(=O)COc3ccccc32)CC1 [Cpd 62, 5-chloro-N-[2-(1H-indol-3-yl)-ethyl]-2-{1-[2-(3-oxo-2,3-dihydro-benzo[1,4]oxazin-4-yl)-ethyl]-piperidin-4-yl}-benzamide] | 900 |  |  |
| O=C1COc2ccccc2N1CCN1CCC(c2ccc(Cl)cc2)CC1 [Cpd 85, 4-{2-[4-(4-chloro-phenyl)-piperidin-1-yl]-ethyl}-4H-benzo[1,4]oxazin-3-one] | 18000 |  |  |
| Cc1ccc(C2CCN(CCN3C(=O)COc4ccccc43)CC2)cc1 [Cpd 90, 4-[2-(4-p-tolyl-piperidin-1-yl)-ethyl]-4H-benzo[1,4]oxazin-3-one] | 15000 |  |  |
| O=C(NCCN1CCCC1)c1ccccc1C1CCN(CCN2C(=O)COc3ccccc32)CC1 [Cpd 30, 2-{1-[2-(3-oxo-2,3-dihydro-benzo[1,4]oxazin-4-yl)-ethyl]-piperidin-4-yl}-N-(2-pyrrolidin-1-yl-ethyl)-benzamide] | 32000 |  |  |
| COC(=O)c1ccccc1C1CCN(CCN2C(=O)COc3ccccc32)CC1 [Cpd 93] | 32000 |  |  |
| Cc1ccccc1C1CCN(CCN2C(=O)COc3ccccc32)CC1 [Cpd 91, 4-[2-(4-o-tolyl-piperidin-1-yl)-ethyl]-4H-benzo[1,4]oxazin-3-one] | 21000 |  |  |
| O=C(NCCc1ccc(Cl)cc1Cl)c1ccccc1C1CCN(CCN2C(=O)COc3ccccc32)CC1 [Cpd 7, N-[2-(2,4-dichloro-phenyl)-ethyl]-2-{1-[2-(3-oxo-2,3-dihydro-benzo[1,4]oxazin-4-yl)-ethyl]-piperidin-4-yl}-benzamide] | 19000 |  |  |
| O=C(NCCc1cccs1)c1ccccc1C1CCN(CCN2C(=O)COc3ccccc32)CC1 [Cpd 47, 2-{1-[2-(3-oxo-2,3-dihydro-benzo[1,4]oxazin-4-yl)-ethyl]-piperidin-4-yl}-N-(2-thiophen-2-yl-ethyl)-benzamide] | 7000 |  |  |
| CC1C=C(c2ccc(Cl)cc2C(=O)NCCCCCNC(=O)OC(C)(C)C)CC(C)N1CCN1C(=O)COc2ccccc21 (stereo not drawn) [Cpd 102, [5-(5-chloro-2-{2,6-dimethyl-1-[2-(3-oxo-2,3-dihydro-benzo[1,4]oxazin-4-yl)-ethyl]-1,2,3,6-tetrahydro-pyridin-4-yl}-benzoylamino)pentyl]-carbamic acid tert-butyl ester] | 7600 |  |  |
| CC(CCc1ccccc1)NC(=O)c1ccccc1C1CCN(CCN2C(=O)COc3ccccc32)CC1 (stereo not drawn) [Cpd 25, N-(1-methyl-3-phenyl-propyl)-2-{1-[2-(3-oxo-2,3-dihydro-benzo[1,4]oxazin-4-yl)-ethyl]-piperidin-4-yl}-benzamide] | 4000 |  |  |
| O=C(NCc1cccnc1)c1ccccc1C1CCN(CCN2C(=O)COc3ccccc32)CC1 [Cpd 43, 2-{1-[2-(3-oxo-2,3-dihydro-benzo[1,4]oxazin-4-yl)-ethyl]-piperidin-4-yl}-N-pyridin-3-ylmethyl-benzamide] | 18000 |  |  |
| O=C(NCC1CCN(C(=O)c2ccccc2)CC1)c1cc(Cl)ccc1C1CCN(CCN2C(=O)COc3ccccc32)CC1 [Cpd 64, N-(1-benzoyl-piperidin-4-ylmethyl)-5-chloro-2-{1-[2-(3-oxo-2,3-dihydro-benzo[1,4]oxazin-4-yl)-ethyl]-piperidin-4-yl}-benzamide] | 520 |  |  |
| CC(=O)NCCNC(=O)c1ccccc1C1CCN(CCN2C(=O)COc3ccccc32)CC1 [Cpd 49, N-(2-acetylamino-ethyl)-2-{1-[2-(3-oxo-2,3-dihydro-benzo[1,4]oxazin-4-yl)-ethyl]-piperidin-4-yl}-benzamide] | 38000 |  |  |
